Reference: patent publication US20160221944A1, “PYRROLIDINE DERIVATIVES AS OXYTOCIN/VASOPRESSIN V1a RECEPTORS ANTAGONISTS” (ObsEva S.A., priority 2013, published 2016)

What was measured:
[1] = system: spontaneous uterine contractions; experiment: Inhibition of spontaneous uterine contractions in anesthetized late-term pregnant rat; type: in vivo; conditions: oral, 10, 30 or 60 mg/kg; at any time during the 170-180 minutes observation
Source text: Late-term pregnant (certified at days 19-21 of pregnancy) Sprague Dawley CD (SD) BR female rats (Charles River, Calco, Italy), weighing 350-400 g were anesthetized with urethane (1.05 g/kg, i.p.) and placed on a homeothermic operating table. A midline incision at the hypogastrium level was made, one pregnant uterine horn exposed and its tubal end (near the ovary) was closed by a ligature with surgical silk. […] After the surgical preparation, a 30-min stabilization period was observed and then the effects of increasing doses of compounds of the present invention (given as 10-min i.v. infusion, bolus i.v. or p.o.) were evaluated by measuring the resulting uterine contractions. For the i.v. administration (infusion or bolus) the uterine contractile activity was quantified by calculating the AUC during the 10-min injection period. The percent variation of the AUC values relative to the spontaneous uterine response observed after each compound administration was calculated in comparison to the value recorded before the first dose-administration (basal value). The effect of test compounds of the present invention was evaluated by comparing pre- and post-treatment luminal uterine pressure values. […] Statistical differences between treatment groups at each time-point were determined by using one-way ANOVA followed by Tukey test. […]

[2] = In vivo stability: isomeric interconversion after single oral and intravenous doses in rats; parameters: species or system rat; conditions: female rats
Description: The animals used in this study were Sprague-Dawley, Crl: CD®BR albino rats. All animals were supplied by Charles River UK Ltd (Margate, Kent, UK). Animals were in the weight range 200-260 g and were approximately 2 months old. Rats were given a unique identity number and were identified by unique tail markings plus cage location.
The dose groups were as follows: 4 female were given an oral dose and 4 female were given an intravenous dose.
(§1) Dose formulations were prepared in an appropriate matrix; intravenous doses were prepared in NP3S, whilst oral doses were prepared in Labrasol:water (1:1 v/v).

[3] = biological target: vasopressin V1a receptor (Homo sapiens, UniProt P37288); experiment: Binding to vasopressin V1a receptor; conditions: read-out: inhibition constant Ki to the vasopressin V1a receptor
[4] = Isomeric interconversion in dose formulations (HPLC); type: physicochemical; conditions: oral (Labrasol:water 1:1) and intravenous (NP3S) dose formulations, pre- and post-dose
Description: as §1

[5] = Qualitative solubility/crystallisation tests on 15 mg scale; type: physicochemical

Chain of vasopressin V1a receptor (P37288 whole entry, species assumed): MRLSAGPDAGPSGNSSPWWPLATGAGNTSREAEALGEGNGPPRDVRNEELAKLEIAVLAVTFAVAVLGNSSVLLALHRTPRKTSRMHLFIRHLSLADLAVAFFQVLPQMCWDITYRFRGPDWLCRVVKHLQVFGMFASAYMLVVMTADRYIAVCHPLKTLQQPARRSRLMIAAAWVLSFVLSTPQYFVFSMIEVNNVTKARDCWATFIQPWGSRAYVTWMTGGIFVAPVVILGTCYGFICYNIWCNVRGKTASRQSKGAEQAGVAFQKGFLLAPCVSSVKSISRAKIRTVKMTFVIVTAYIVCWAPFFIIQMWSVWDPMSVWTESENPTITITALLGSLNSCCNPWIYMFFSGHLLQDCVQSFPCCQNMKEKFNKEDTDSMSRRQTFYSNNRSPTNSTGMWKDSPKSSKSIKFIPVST

| SMILES | inhibition of uterine contraction [1] | [14C]-E-isomer present in plasma ([2]; 30 mg/kg oral or intravenous, plasma collected up to 6 hours) | isomeric interconversion in vivo ([2]; 30 mg/kg, after oral or intravenous dose administration) | Ki [3] [nM] | interconversion to E-isomer during dose preparation or administration [4] | Qualitative solubility, Dissolves in: ([5]; DIPE, hot) [vol hot] | Qualitative solubility, Dissolves in: ([5]; IPA, hot) [vol hot] | Qualitative solubility, Dissolves in: ([5]; MIBK, hot) [vol hot] | Qualitative solubility, Dissolves in: ([5]; THF, cold) [vol cold] | Qualitative solubility, Comment ([5]; heptanes) | Qualitative solubility, Dissolves in: ([5]; tBuOH, hot) [vol hot] | Qualitative solubility, Dissolves in: ([5]; toluene, cold) [vol cold] |
| --- | --- | --- | --- | --- | --- | --- | --- | --- | --- | --- | --- | --- |
| CO/N=C1\C[C@@H](CO)N(C(=O)c2ccc(-c3ccccc3C)cc2)C1 [(3E,5S)-5-(hydroxymethyl)-1-[(2′-methyl-1,1′-biphenyl-4-yl)carbonyl]pyrrolidin-3-one O-methyloxime] | no inhibition | – | – | – | – | – | – | – | – | – | – | – |
| CO/N=C1/C[C@@H](CO)N(C(=O)c2ccc(-c3ccccc3C)cc2)C1 [(3Z,5S)-5-(hydroxymethyl)-1-[(2′-methyl-1,1′-biphenyl-4-yl)carbonyl]pyrrolidin-3-one O-methyloxime] | – | no evidence | no detectable isomeric interconversion | 120 | no detectable interconversion | 40 | 4 | 4 | 4 | insoluble in 20 vol | 6 | 2 |
